{"source": "patent US9414598B2", "about": "“Protecting wood with stabilized boron complexes” (priority 2006, dated 2016)", "key": {"Brown rot": {"system": "Brown rot", "details": "12 weeks decay", "method": "(§1) Decay tests were conducted on wood blocks, both leached and unleached. Samples were halved, with one group subjected to weathering and the other group maintained unweathered. Both sets of samples were subjected to a soil block culture test according to the AWPA E10-01 method. For each block, the percentage of mass loss was determined. These samples were allowed to decay for 12 weeks for brown rot decay and for 16 weeks for white rot decay."}, "White rot": {"system": "White rot", "details": "for % mass loss (std. dev): White rot, 16 weeks decay", "method": "as §1"}, "[1]": {"details": "for Mean values of the initial boron retention: before leaching, (standard deviations); for Mean of boron retained in wood (std. dev): mean of three samples", "method": "Accelerated leaching tests were performed according to AWPA E11-97 (AWPA, 2003). Four Southern yellow pine (Pinus sp.) samples were leached, each in its own leaching flask. At the end of each leaching period, the leachate was collected and the samples were air dried for two weeks. The amount of boron retained in the wood was determined by inductive coupled plasma (ICP) spectrometry after boron was extracted with hydrochloric acid from the ground wood."}}, "note": "Where two headings read alike, the source gives them in different places. Marks after values point to notes of the source that are not given here."}
{"smiles": "OB(O)O", "note": "[Boric acid only, Boric acid]", "values": [{"measurement": "% mass loss (std. dev)", "setting": "Brown rot; Not leached samples", "value": "3.21 (0.22) %"}, {"measurement": "% mass loss (std. dev)", "setting": "Brown rot; leached samples", "value": "18.88 (2.30) %"}, {"measurement": "% mass loss (std. dev)", "setting": "White rot; Not leached samples", "value": "2.51 (0.51) %"}, {"measurement": "% mass loss (std. dev)", "setting": "White rot; leached samples", "value": "16.59 (2.19) %"}, {"measurement": "decay resistance (in words)", "setting": "White rot; leached samples, summary of Table 4 for white rot and brown rot", "value": "no significant decay resistance"}, {"measurement": "Mean values of the initial boron retention", "setting": "[1]; Southern yellow pine cubes, samples for Leaching test", "value": "2075.0^a (2.19)^b ppm"}, {"measurement": "Mean of boron retained in wood (std. dev)", "setting": "[1]; leaching duration 0 (Not unleached)", "value": "2075.0 (80.18) ppm"}, {"measurement": "Mean of boron retained in wood (std. dev)", "setting": "[1]; leaching duration 6 hours", "value": "1005.00 (125.2) ppm"}, {"measurement": "Mean of boron retained in wood (std. dev)", "setting": "[1]; leaching duration 24 hours", "value": "737.13 (40.85) ppm"}, {"measurement": "Mean of boron retained in wood (std. dev)", "setting": "[1]; leaching duration 2 days", "value": "99.32 (17.84) ppm"}, {"measurement": "Mean of boron retained in wood (std. dev)", "setting": "[1]; leaching duration 4 days", "value": "25.37 (2.81) ppm"}, {"measurement": "Mean of boron retained in wood (std. dev)", "setting": "[1]; leaching duration 6 days", "value": "2.908 (0.61) ppm"}, {"measurement": "Mean of boron retained in wood (std. dev)", "setting": "[1]; leaching duration 8 days", "value": "2.941 (0.83) ppm"}, {"measurement": "Mean of boron retained in wood (std. dev)", "setting": "[1]; leaching duration 10 days", "value": "2.89 (0.79) ppm"}, {"measurement": "Mean of boron retained in wood (std. dev)", "setting": "[1]; leaching duration 12 days", "value": "2.79 (0.53) ppm"}, {"measurement": "Mean of boron retained in wood (std. dev)", "setting": "[1]; leaching duration 14 days", "value": "2.8 (0.82) ppm"}, {"measurement": "loss of boron on leaching (in words)", "setting": "[1]; leaching of treated wood cubes", "value": "lost most of their boron within 6 hours"}, {"measurement": "Mean values of the initial boron retention", "setting": "[1]; samples for Brown rot test", "value": "2227.31 (3.27) ppm"}, {"measurement": "Mean values of the initial boron retention", "setting": "[1]; samples for White rot test", "value": "2225.43 (1.27) ppm"}, {"measurement": "Termite mortality (%)", "setting": "Coptotermes formosanus; in vivo", "value": 4.3, "unit": "%"}, {"measurement": "protection against termites (in words)", "setting": "Coptotermes formosanus; treated wood cubes, boron-CA-SS after leaching", "value": "adequate protection against termites"}]}
